Measurements reported in ChEMBL document CHEMBL2203133 (J Med Chem, 2012).
Blank lines part the entries; values can stand above or below the compound they belong to.

Key:
[1] = Plasma concentration in BALB/c mouse at 10 mg/kg, po at 6 hrs; format: ADME, organism-based; parameters: dose 10 mg/kg, route oral
[2] = Plasma concentration in BALB/c mouse at 10 mg/kg, iv at 1 hr administered as bolus dose; format: ADME, organism-based; parameters: dose 10 mg/kg, route intravenous
[3] = Plasma concentration in BALB/c mouse at 10 mg/kg, po at 1 hr; format: ADME, organism-based; parameters: dose 10 mg/kg, route oral
[4] = tested on: Caco-2; details: human
Description: Permeability across apical to basolateral side in human Caco2 cells

[5] = target: Voltage-gated inwardly rectifying potassium channel KCNH2 (Homo sapiens, UniProt Q12809)
[6] = Plasma concentration in BALB/c mouse at 10 mg/kg, iv at 6 hrs administered as bolus dose; format: ADME, organism-based; parameters: dose 10 mg/kg, route intravenous
[7] = target: T1, Serine/threonine-protein kinase Chk1 (Homo sapiens, UniProt O14757)
T1 sequence (O14757 whole entry): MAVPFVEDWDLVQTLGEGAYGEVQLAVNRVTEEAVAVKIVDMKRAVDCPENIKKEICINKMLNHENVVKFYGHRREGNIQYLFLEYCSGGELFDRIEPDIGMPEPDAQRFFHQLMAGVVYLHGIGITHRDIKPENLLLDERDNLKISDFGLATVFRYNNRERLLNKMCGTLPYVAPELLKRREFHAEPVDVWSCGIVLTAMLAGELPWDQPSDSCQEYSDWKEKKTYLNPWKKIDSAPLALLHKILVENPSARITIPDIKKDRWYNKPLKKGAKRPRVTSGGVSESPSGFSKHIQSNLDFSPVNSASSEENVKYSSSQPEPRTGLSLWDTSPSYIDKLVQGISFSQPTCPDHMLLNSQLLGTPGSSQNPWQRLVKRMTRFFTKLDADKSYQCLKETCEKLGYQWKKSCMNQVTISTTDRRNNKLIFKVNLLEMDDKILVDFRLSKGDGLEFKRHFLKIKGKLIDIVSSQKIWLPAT

[8] = in vitro; details: mouse, liver microsomes
[9] = tested on: Mus musculus; assay: Toxicity in athymic mouse xenografted with human HT-29 cells assessed as body weight loss at 100 mg/kg, iv tid for 7 days; format: organism-based; parameters: dose 100 mg/kg, route intravenous; details: in vivo, 168 h
[10] = tested on: Mus musculus; assay: Toxicity in athymic mouse xenografted with human Calu6 cells assessed as body weight loss at 100 mg/kg, iv tid for 7 days; format: organism-based, Calu-6; parameters: dose 100 mg/kg, route intravenous; details: in vivo, 168 h
[11] = tested on: Mus musculus; assay: Toxicity in athymic mouse xenografted with human SW620 cells assessed as body weight loss at 100 mg/kg, iv tid for 4 days; format: organism-based, SW-620; parameters: dose 100 mg/kg, route intravenous; details: in vivo, 96 h
[12] = tested on: SW-620; assay: Antitumor activity against human SW620 cells xenografted in athymic mouse assessed as tumor growth delay at 100 mg/kg, iv tid for 4 days (reference value: 5.3 1.3); format: functional
[13] = tested on: Calu-6; assay: Antitumor activity against human Calu6 cells xenografted in athymic mouse assessed as tumor growth delay at 100 mg/kg, iv tid for 7 days (reference value: 6.9 1.6); format: functional
[14] = tested on: HT-29; assay: Antitumor activity against human HT-29 cells xenografted in athymic mouse assessed as tumor growth delay at 100 mg/kg, iv tid for 7 days (reference value: 8.8 4.8); format: functional
[15] = target: T2, hERG (KCNH2) (Homo sapiens, UniProt Q12809); assay: Inhibition of human ERG overexpressed in HEK cells at 11 uM; format: cell-based, HEK293; details: HEK cells overexpressing human ERG
[16] = target: T2, hERG (KCNH2); assay: Inhibition of human ERG overexpressed in HEK cells at 10 uM; format: cell-based, HEK293; details: HEK cells overexpressing human ERG

T2 sequence (Q12809 whole entry): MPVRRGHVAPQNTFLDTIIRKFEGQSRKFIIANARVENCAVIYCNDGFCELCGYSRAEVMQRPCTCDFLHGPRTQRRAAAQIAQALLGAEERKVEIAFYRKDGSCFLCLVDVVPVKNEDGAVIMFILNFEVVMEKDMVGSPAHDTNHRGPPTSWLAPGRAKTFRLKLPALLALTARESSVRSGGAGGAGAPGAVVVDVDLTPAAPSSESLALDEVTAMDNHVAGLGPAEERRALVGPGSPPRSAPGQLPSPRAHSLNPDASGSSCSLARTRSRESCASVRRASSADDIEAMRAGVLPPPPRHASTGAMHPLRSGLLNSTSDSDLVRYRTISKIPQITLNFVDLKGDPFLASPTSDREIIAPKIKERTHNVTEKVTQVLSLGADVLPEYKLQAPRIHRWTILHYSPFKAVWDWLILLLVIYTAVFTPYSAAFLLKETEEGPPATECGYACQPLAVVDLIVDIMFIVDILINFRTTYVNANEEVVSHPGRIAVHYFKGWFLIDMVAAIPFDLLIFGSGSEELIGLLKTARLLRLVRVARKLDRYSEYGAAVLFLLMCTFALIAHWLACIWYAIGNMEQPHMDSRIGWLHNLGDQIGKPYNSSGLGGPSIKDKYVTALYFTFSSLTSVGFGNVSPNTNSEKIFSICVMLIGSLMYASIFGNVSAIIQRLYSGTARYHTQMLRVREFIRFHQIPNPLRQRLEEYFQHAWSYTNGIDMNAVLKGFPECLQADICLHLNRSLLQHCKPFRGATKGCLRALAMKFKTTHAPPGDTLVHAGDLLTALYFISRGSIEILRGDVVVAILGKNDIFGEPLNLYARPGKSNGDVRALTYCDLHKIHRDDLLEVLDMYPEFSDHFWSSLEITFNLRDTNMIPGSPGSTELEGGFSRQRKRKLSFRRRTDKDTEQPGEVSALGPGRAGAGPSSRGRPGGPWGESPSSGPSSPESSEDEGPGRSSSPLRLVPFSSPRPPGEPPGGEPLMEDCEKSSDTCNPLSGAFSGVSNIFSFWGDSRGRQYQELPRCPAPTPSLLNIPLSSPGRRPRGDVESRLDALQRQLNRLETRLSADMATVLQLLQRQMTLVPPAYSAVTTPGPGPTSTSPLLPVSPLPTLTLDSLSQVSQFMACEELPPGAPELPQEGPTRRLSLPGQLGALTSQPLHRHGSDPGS
Chain of Voltage-gated inwardly rectifying potassium channel KCNH2 (Q12809 whole entry): as above

SMILES: CNc1cc(Nc2cnc(C#N)c(O[C@H](C)CN(C)C)n2)ncc1C(=O)OC
IC50 [5]: 5 µM
IC50 [7]: 7 nM
metabolised at 0.5 h [8]: 49%

SMILES: Nc1ccn([C@@H]2O[C@H](CO)[C@@H](O)C2(F)F)c(=O)n1 [GEMCITABINE]
Activity [9]: Non-toxic
Activity [10]: Non-toxic
Activity [11]: Non-toxic
Time [12]: 1.6 days
Time [13]: 7.2 days
Time [14]: 2.3 days

SMILES: CNc1ccnc(Nc2cnc(C#N)c(O[C@H](C)CN(C)C)n2)c1
IC50 [7]: 97 nM
inhibition at 10 µM [16]: 71%

SMILES: COC(=O)c1cnc(Nc2cnc(C#N)c(O[C@@H]3CCNC3)n2)cc1SC
IC50 [7]: 18 nM
inhibition at 10 µM [16]: 25%

SMILES: C[C@H](CN(C)C)Oc1nc(Nc2cc3cccc(Cl)c3cn2)cnc1C#N
IC50 [5]: 5 µM

SMILES: COC(=O)c1cnc(Nc2cnc(C#N)c(O[C@@H]3CCNC3)n2)cc1OC
IC50 [7]: 46.5 nM
inhibition at 11 µM [15]: 44%

SMILES: CNc1cc(Nc2cnc(C#N)c(O[C@H]3CCN(C)C3)n2)ncc1-c1cnn(C)c1
concentration at 6 h [1]: 4 nM
concentration at 1 h [2]: 147 nM
concentration at 1 h [3]: 18 nM
concentration at 6 h [6]: 8 nM
IC50 [7]: 3.4 nM
metabolised at 0.5 h [8]: 19%

The next lines start with results.

concentration at 6 h [1]: 26 nM
concentration at 1 h [2]: 1040 nM
concentration at 1 h [3]: 809 nM
permeability [4]: < 4.6 ×10⁻⁶ cm/s
concentration at 6 h [6]: 33 nM
IC50 [7]: 21 nM
metabolised at 0.5 h [8]: 43%
SMILES: CNc1cc(Nc2cnc(C#N)c(O[C@H](C)CN(C)C)n2)ncc1C(F)(F)F
IC50 [5]: 1 µM

concentration at 6 h [1]: 8 nM
concentration at 1 h [2]: 417 nM
concentration at 1 h [3]: 80 nM
concentration at 6 h [6]: 29 nM
IC50 [7]: 26 nM
metabolised at 0.5 h [8]: 42%
SMILES: CNc1cc(Nc2cnc(C#N)c(O[C@H](C)CN(C)C)n2)ncc1C1CC1
IC50 [5]: 6 µM

IC50 [7]: 36 nM
SMILES: CNc1cc(Nc2cnc(C#N)c(O[C@H](C)CN(C)C)n2)ncc1-c1cccc(F)c1
inhibition at 11 µM [15]: 103%

IC50 [7]: 20 nM
SMILES: CNc1cc(Nc2cnc(C#N)c(O[C@H](C)CN(C)C)n2)ncc1Cl
IC50 [5]: 1 µM
